Columns and labels:
HCV replicon RNA = details: hepatoma cells, recent studies (ref. 23); cited from earlier work
HCV RNA replication [1] = assay: HCV RNA replicon levels in Huh7-K2040 cells (subgenomic replicon); details: for viral RNA levels (effect in words): 24-hour culture period; for rescue of HCV RNA levels from the suppressive action of lovastatin: lovastatin-treated Huh7-K2040 cells supplemented with the metabolite, 24-hour culture
H-Ras = assay: Prenylation of wild-type H-Ras (blot); type: cell-based; details: 10 μM
Description: (§1) In contrast, FPTI-III had no effect on viral RNA levels. To confirm the specificity of GGTI-286 and FPTI-III action, we evaluated the effect of each compound on the prenylation of wild-type H-Ras, which is normally farnesylated, and a mutant H-Ras(S189L) in which the carboxyl-terminal amino acid has been changed to leucine, making it a substrate for GGTase 1 (21). […] Thus, the inhibitory activity of GGTI-286 on HCV RNA replication must be due to its action against GGTase I, and not farnesyl transferase.

[2] = tested on: HCV replication complex (NS5A); assay: Immunocytochemical NS5A staining of the HCV replication complex; type: cell-based, hepatitis C virus
Description: HCV Replication Complex Requires Protein Geranylgeranylation. Among other functions, geranylgeranylated proteins mediate the interaction of membranes with cytoskeletal proteins (8). Such interactions are likely to be required for the formation of the ER-associated HCV replication complex, which contains the viral RNA as well as the nonstructural viral proteins (1, 2). […] To test whether lovastatin affects the replication complex, we stained cells with an antibody to NS5A and an FITC-labeled second antibody. In the absence of lovastatin treatment, much of the NS5A was localized in a punctate pattern consistent with the ER localization of the HCV replication complex.

H-Ras(S189L) = assay: Prenylation of mutant H-Ras(S189L), substrate for GGTase I (blot); type: cell-based; details: 10 μM
Description: as §1

Rap1a = assay: SDS-PAGE and blot of Rap1a prenylation in Huh7-K2040 cells; type: cell-based, human
Huh7-K2040 cells [3] = details: for cellular DNA synthesis / cellular mRNA synthesis / levels: 24 hours
Description: (§2) We therefore examined the influence of lovastatin upon the synthesis of DNA, mRNA, and protein in Huh7-K2040 cells.

Huh7-K2040 cells [4] = assay: Cell viability of treated cultures; details: cultures treated over 7 days, at the concentrations used
Description: as §2

West Nile virus [5] = assay: WN virus replication in mammalian cell types; type: cell-based; details: several mammalian cell types
Description: Cells and virus. Vero (ATCC CCL-81) cells are grown in minimal essential medium (MEM) supplemented with 10% fetal bovine serum (FBS). BHK-21/WI2 (BHK-21) and Aedes albopictus C6/36 (C6/36) (ATCC CRL-1660) cells are grown in Dulbecco's modification of MEM with 10% FBS and 0.1 mM nonessential amino acids. Antibiotics are added to all media at 10 U/ml of penicillin and 10 μg/ml of streptomycin. Cells are maintained in 5% CO2 at 37° C. (Vero and BHK-21) or 28° C. (C6/36). West Nile viruses are obtained from the World Arbovirus Reference Collection and stocks are grown and plaque titrated in Vero cells. Prenylation inhibitors examined over a series of 10-fold dilutions.
IFA. Indirect immunofluorescence assays (IFA) are used to detect viral protein expression in WNV RNA-transfected BHK-21 cells. After electroporation, approximately 10^5 transfected cells are spotted onto 10-mm glass coverslips. Cells on coverslips are analyzed by IFA at various times posttransfection for viral protein synthesis. […] The coverslips are washed with PBS, mounted to a slide using fluorescent mounting medium (KPL), and observed under a fluorescence microscope equipped with a video documentation system (Zeiss, Thornwood, N.Y.).
Specific infectivity assay. […] Plaques are counted after incubation of the plates for another 12 to 24 h, and the specific infectivity is calculated as the number of PFU per microgram of RNA. […]

West Nile virus [6] = assay: WN virus replication in a mouse model; type: in vivo
Description: Virulence in mice. Mice are housed in an environmentally controlled room under biosafety level 3 conditions and are given food and water ad libitum. Female outbred CD-1 mice (Charles River Laboratories, Wilmington, Mass.) are obtained at 5 weeks of age and acclimatized for 1 week. All mice are 6 weeks of age at the start of the experiment. Eight mice per group are inoculated with diluent alone or with 10^2 PFU of virus subcutaneously (s.c.) in the left rear footpad. Diluent is PBS (endotoxin-free) supplemented with 1% FBS. Mice are evaluated clinically and weighed daily for 2 weeks, then monitored daily and weighed thrice weekly for 2 more weeks. Observed clinical signs include ruffled fur, paresis, hindleg paralysis, and tremors. Morbidity is defined as exhibition of greater than 10% weight loss or clinical signs for 2 or more days. Mice are euthanized if they become moribund.

HCV RNA replication [7] = assay: HCV RNA replicon levels in Huh7-HP cells (subgenomic replicon)
HCV RNA replication [8] = assay: HCV RNA replicon levels in Huh7-C5B3 cells (genome-length replicon)

Compound: C[C@H](CCCC(C)(C)O)[C@H]1CC[C@H]2[C@@H]3CC=C4C[C@@H](O)CC[C@]4(C)[C@H]3CC[C@]12C [25-hydroxycholesterol]
- level of HCV replicon RNA (HCV replicon RNA): reduce the level of HCV replicon RNA

Compound: COC(=O)[C@H](CC(C)C)NC(=O)c1ccc(NC[C@@H](N)CS)cc1-c1ccccc1 [GGTI-286]
- level of HCV RNA (HCV RNA replication [1]; Huh7-K2040 cells, increasing concentrations of inhibitor): dose-dependent decrease
- prenylation (farnesylation) of wild-type H-Ras (H-Ras): inhibiting farnesylation of H-Ras
- redistribution of HCV NS5A protein from punctate to diffuse pattern [2]: produced a redistribution
- prenylation (geranylgeranylation) of H-Ras(S189L) (H-Ras(S189L)): inhibiting farnesylation of H-Ras as well as geranylgeranylation of H-Ras(S189L)
- prenylation of endogenous Rap1a (Rap1a; 10 μM): clear-cut inhibitory effects

Compound: C[C@@]1(CO)[C@H](O)CC[C@@]2(C)[C@H]1CC[C@H]1C[C@@H]3C[C@@]12CC[C@]3(O)CO [aphidicolin]
- viral RNA levels (effect in words) (HCV RNA replication [1]; Huh7-K2040 cells): did not affect
- global rate of cellular protein synthesis (Huh7-K2040 cells [3]): moderately suppressed
- cellular DNA synthesis (Huh7-K2040 cells [3]): blocked DNA synthesis
- cellular mRNA synthesis / levels (Huh7-K2040 cells [3]): did not affect

Compound: CC(C)=CCCC(C)=CCCC(C)=CCO [farnesol]
- rescue of HCV RNA levels from the suppressive action of lovastatin (HCV RNA replication [1]): neither farnesol nor oleate, mediated a dose-dependent rescue

Compound: CC(C)=CCC/C(C)=C/CC/C(C)=C/CC/C(C)=C/CO [geranylgeraniol]
- rescue of HCV RNA levels from the suppressive action of lovastatin (HCV RNA replication [1]): mediated a dose-dependent rescue
- prevention of loss of punctate NS5A distribution ([2]; added to lovastatin-treated cells): prevented the loss of the punctate distribution
- restoration of Rap1a geranylgeranylation (Rap1a; added to lovastatin-treated Huh7-K2040 cells): eliminated the upper band

Compound: NC(=O)NO [hydroxyurea]
- viral RNA levels (effect in words) (HCV RNA replication [1]; Huh7-K2040 cells): did not affect
- global rate of cellular protein synthesis (Huh7-K2040 cells [3]): moderately suppressed
- cellular DNA synthesis (Huh7-K2040 cells [3]): blocked DNA synthesis
- cellular mRNA synthesis / levels (Huh7-K2040 cells [3]): did not affect

Compound: CC[C@H](C)C(=O)O[C@H]1C[C@@H](C)C=C2C=C[C@H](C)[C@H](CC[C@@H]3C[C@@H](O)CC(=O)O3)[C@H]21 [lovastatin]
- reduction of HCV RNA levels (HCV RNA replication [1]; Huh7-K2040 cells, after 72 hours): more than 95%
- reduction of HCV RNA levels (HCV RNA replication [1]; Huh7-K2040 cells, after a 24-hour treatment): more than 70%
- viral protein levels (HCV RNA replication [1]; Huh7-K2040 cells, over a 72-hour culture period): reduction in viral protein levels
- punctate NS5A staining pattern ([2]; treatment for 48 hours): largely disappeared
- cell viability (Huh7-K2040 cells [4]): no significant effects
- WN virus replication (West Nile virus [5]): disrupted
- prenylation state of Rap1a (Rap1a; Huh7-K2040 cells): caused the appearance of a slow-migrating form
- WN virus replication (West Nile virus [6]): disrupted
- global rate of cellular protein synthesis (Huh7-K2040 cells [3]): moderately suppressed
- cellular DNA synthesis (Huh7-K2040 cells [3]): did not significantly affect
- cellular mRNA synthesis / levels (Huh7-K2040 cells [3]): did not significantly affect
- levels of viral proteins (HCV RNA replication [7]): reduced the levels of viral proteins
- levels of viral proteins (HCV RNA replication [8]): reduced the levels of viral proteins

Compound: CC(O)(CCO)CC(=O)O (centres unmarked) [mevalonate]
- rescue of HCV RNA levels from the suppressive action of lovastatin (HCV RNA replication [1]): dose-dependent rescue
